These results are taken from US8802104B2, “Parathyroid hormone receptor activation and stem and progenitor cell expansion” (The General Hospital Corporation, priority 2002, dated 2014).

Experiment [1] deals with lin-Sca-1+c-Kit+ cells in bone marrow. The experiment in a line: In vivo PTH administration: flow cytometry of lin-Sca-1+c-Kit+ cells. Details: species or system C57Bl/6 mice. As to conditions: four weeks PTH; P<0.01, FIG. 5d. From the text:
Bone marrow mononuclear cells were isolated as described above. Single cell suspensions were then stained with biotinylated lineage antibodies (CD3, CD4, CD8, Ter119, Gr-1, Mac-1 and B220) and phycoerythrin conjugated anti-Sca-1 and anti-c-Kit (Pharmingen, San Diego, Calif.). Cells were then labeled with a secondary fluorescein isothiocyanante conjugated streptavidin and analyzed on a FACScalibur cytometer (Becton Dickinson and Co., Franklin Lakes, N.J.) using Cell Quest software. […]
For PTH administration, 6-8 week old wild type C57/B male mice were used. […] At the end of the treatment period, ionized serum calcium was measured by the Ciba/Corning 634 Ca^++/pH analyzer, and, after euthanasia, the hind limbs and forelimbs were dissected and utilized for cytologic and histologic analysis.
As treatment of stromal cells with PTH led to an increase in the ability of the stromal cell population to support hematopoietic stem cells, it was investigated whether these effects could be recapitulated in vivo. Wild-type C57Bl/6 mice were injected daily with PTH using an intermittent dosing schedule known to increase osteoblasts, and the frequencies of LTC-ICs in the bone marrow were measured. […]

Another experiment concerns peripheral blood cells. The experiment in a line: Complete blood count during cyclophosphamide chemotherapy cycles. The format is in vivo, C57Bl/6 mice. Here is the method:
Wild-type C57Bl/6 mice were treated with 5 mg of cyclophosphamide (Day 1). The day following injection of cyclophosphamide, mice received no treatment or were treated for 8 days with G-CSF (5 μg/day), 11 days with PTH (80 μg/kg/day) or a combination of G-CSF plus PTH. Mice that received a combination of both G-CSF and PTH received G-CSF treatment for 8 days and PTH treatment for 11 days. Following this treatment protocol, mice were injected with cyclophosphamide on Day 15 and treated with G-CSF, PTH or G-CSF and PTH as described above. The treatment protocol was then repeated for two subsequent cycles, as outlined in FIG. 7.
During the course of the four treatment cycles, peripheral blood complete blood count (CBC) analysis was performed every 2 to 3 days. This analysis involved the collection of 100 μl of peripheral blood from the tail vein of the mice, which was subsequently analyzed on a HEMAVET 850FS (Drew Scientific). To avoid any deleterious effects from repeated tail bleeds, each individual mouse was only bled once per week.

The subject of experiment [2] is C-1498/GFP leukemia cells. The experiment in a line: Leukemia outgrowth in niche-stimulated animals. The format is in vivo, mice. The text has this:
The kinetics of leukemia cell engraftment, growth, and maturation were studied in normal mice. In an effort to analyze the growth and fate of C-1498 leukemia cells transplanted into mice, the cells were transduced with a retrovirus expressing GFP(C-1498/GFP). This allows easy tracking of these cells in vivo using GFP as a marker (FIG. 9a). The acute myelogenous leukemia cell line C-1498, a spontaneously-arising acute myelomonocytic leukemia derived from C57/BL6 (H2-b) mice, is easily transplantable, can be cultured in vitro, and infected with retroviruses.
Attention was subsequently directed to determining how activation of the stem cell niche with PTH might affect leukemia growth and maturation. To investigate the kinetics of leukemia outgrowth in “niche-stimulated” animals, animals were pre-stimulated with PTH at 80 μg/kg/day (versus saline alone) for one month. Mice were then lethally irradiated at 10 Gray, and then transplanted with 50,000 leukemia cells (GFP+) and 1×10^6 normal bone marrow cells (GFP-) (FIG. 10a). At 15 days post-transplantation, bone marrow was harvested, and, then, GFP-positive cells were scored as percentage and in absolute number. Since the absolute number of total cells was not statistically different between both groups, only the percentage figures are shown in FIG. 10b, left panel.
In mock-treated animals, osteoblasts and osteoprogenitors, identified at PTH-receptor positive cells, were found lining the endostial surfaces of bone.

Consider Rat PTH (1-34), for which the “lin-Sca-1+c-Kit+ cells compared with mock treated controls” value in experiment [1] was “higher frequency and absolute number”. For the same substance, the “WBC and NE counts following chemotherapy, effect of adding PTH” value in the experiment on peripheral blood cells (PTH 80 μg/kg/day 11 days added to G-CSF) is “not altered”. The “hematological response to chemotherapy” value with peripheral blood cells (mice that did not receive G-CSF, PTH or not) is listed as “no differences”. Besides, the “localisation of PTH-r positive cells (osteoblasts, osteoprogenitors)” value in experiment [2] (10 micron bone sections, PTH-treated animals) was “migrated extensively into the marrow”. For the same substance, the “GFP-positive leukemia cells in bone sections (histology)” value in experiment [2] (10 micron bone sections, PTH-treated vs mock-treated) is “markedly reduced”. In addition, in experiment [2] (PTH 80 μg/kg/day one month pre-stimulation, 15 days post-transplantation, 3 of 3 experiments), the “number of GFP-positive leukemia initiating cells in bone marrow” value is “markedly reduced”. Besides, the “kinetics of normal hematopoiesis” value in experiment [2] (PTH treated animal, FIG. 11) is reported as “did not change”.
